Results: patent US6472348B1, “Pyridone derivatives and herbicides” (Kumiai Chemical Industry Co., Ltd., priority 1996, dated 2002)

How the values were obtained:
[1] = system: common lambsquarters (Ch); assay: Test Example 11: crop plant selectivity by upland field foliage treatment (corn), herbicidal effects; format: in vivo; design: scale not given here; conditions: dose 1.6 g ai/10a
Method in brief: (§1)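 Corn with pale smartweed, slender amaranth, common lambsquarters and China jute sown in sand-filled pots and grown 2 weeks in a greenhouse before foliage treatment. Herbicidal effect and crop phytotoxicity scored on day 14 after treatment against a rating standard.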

slender amaranth (Am) [2] = assay: as above; format: in vivo; design: scale not given here; conditions: dose 1.6 g ai/10a
Method in brief: as §1

pale smartweed (Po) [3] = assay: as above; format: in vivo; design: scale not given here; conditions: dose 1.6 g ai/10a
Method in brief: as §1

China jute (Ab) [4] = assay: as above; format: in vivo; design: scale not given here; conditions: dose 1.6 g ai/10a
Method in brief: as §1

bulrush (Sc) = assay: Test Example 1: herbicidal effects by paddy field soil treatment; format: in vivo; conditions: 100 g of the active ingredient per 10 ares, 21st day after the application, index 0-5 of Table 47;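 note: grade of growth control; 5 = at least 90%; 4 = 70 to 90%; 3 = 50 to 70%; 2 = 30 to 50%; 1 = 10 to 30%; 0 = under 10%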
Method in brief: (§2)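 Scoring of herbicidal effect came 21 days after application of 100 g active ingredient per 10 ares to flooded (3 cm) paddy-soil pots sown with barnyardgrass, monochoria and bulrush, kept in a greenhouse.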

barnyardgrass (Ec) [5] = assay: as above; format: in vivo; conditions: 100 g of the active ingredient per 10 ares, 21st day after the application, index 0-5 of Table 47
Method in brief: as §2

monochoria (Mo) = assay: as above; format: in vivo; conditions: 100 g of the active ingredient per 10 ares, 21st day after the application, index 0-5 of Table 47;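 note: grade of growth control; 5 = at least 90%; 4 = 70 to 90%; 3 = 50 to 70%; 2 = 30 to 50%; 1 = 10 to 30%; 0 = under 10%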
Method in brief: as §2

[6] = system: common lambsquarters (Ch); assay: Test Example 2: herbicidal effects by upland field soil treatment; format: in vivo; conditions: 100 g of the active ingredient per 10 ares, evaluated on the 21st day after application;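 note: grade of growth control; 5 = at least 90%; 4 = 70 to 90%; 3 = 50 to 70%; 2 = 30 to 50%; 1 = 10 to 30%; 0 = under 10%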
Text: (§3) (Test on Herbicidal Effects by Upland Field Soil Treatment)

barnyardgrass (Ec) [7] = assay: as above; format: in vivo; conditions: 100 g of the active ingredient per 10 ares, evaluated on the 21st day after application
Text: as §3

slender amaranth (Am) [8] = assay: as above; format: in vivo; conditions: 100 g of the active ingredient per 10 ares, evaluated on the 21st day after application
Text: as §3

rice flatsedge (Ci) [9] = assay: as above; format: in vivo; conditions: 100 g of the active ingredient per 10 ares, evaluated on the 21st day after application
Text: as §3

pale smartweed (Po) [10] = assay: as above; format: in vivo; conditions: 100 g of the active ingredient per 10 ares, evaluated on the 21st day after application
Text: as §3

Digitaria ciliaris (Di) = assay: as above; format: in vivo; conditions: 100 g of the active ingredient per 10 ares, evaluated on the 21st day after application;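 note: grade of growth control; 5 = at least 90%; 4 = 70 to 90%; 3 = 50 to 70%; 2 = 30 to 50%; 1 = 10 to 30%; 0 = under 10%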
Text: as §3

[11] = system: common lambsquarters (Ch); assay: Test Example 3: herbicidal effects by upland field foliage treatment; format: in vivo; design: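 grade of growth control; 5 = at least 90%; 4 = 70 to 90%; 3 = 50 to 70%; 2 = 30 to 50%; 1 = 10 to 30%; 0 = under 10%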; conditions: 100 g active ingredient per 10 ares, evaluated 14th day after treatment
Method in brief: (§4)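 Weeds sown in sand-filled pots and grown 2 weeks in a greenhouse before foliage treatment. Plants then kept in the greenhouse; herbicidal effect scored on day 14 after treatment against a graded standard scale.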

barnyardgrass (Ec) [12] = assay: as above; format: in vivo; design: scale not given here; conditions: 100 g active ingredient per 10 ares, evaluated 14th day after treatment
Method in brief: as §4

slender amaranth (Am) [13] = assay: as above; format: in vivo; design: scale not given here; conditions: 100 g active ingredient per 10 ares, evaluated 14th day after treatment
Method in brief: as §4

Diaitaria ciliaris (Di) = assay: as above; format: in vivo; design: scale not given here; conditions: 100 g active ingredient per 10 ares, evaluated 14th day after treatment
Method in brief: as §4

rice flatsedge (Ci) [14] = assay: as above; format: in vivo; design: scale not given here; conditions: 100 g active ingredient per 10 ares, evaluated 14th day after treatment
Method in brief: as §4

pale smartweed (Po) [15] = assay: as above; format: in vivo; design: scale not given here; conditions: 100 g active ingredient per 10 ares, evaluated 14th day after treatment
Method in brief: as §4

[16] = system: common lambsquarters (Ch); assay: Test Example 9: crop plant selectivity by upland field foliage treatment (wheat), herbicidal effects; format: in vivo; design: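 grade of growth control; 5 = at least 90%; 4 = 70 to 90%; 3 = 50 to 70%; 2 = 30 to 50%; 1 = 10 to 30%; 0 = under 10%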; conditions: dose 1.6 g ai/10a, 14th day after treatment
Method in brief: (§5)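 Seeds of wheat, pale smartweed, slender amaranth, common lambsquarters and China jute are sown in sand and grown 2 weeks under glass. Foliage is then treated, culture resumes in the greenhouse, and damage is graded on the 14th day.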

slender amaranth (Am) [17] = assay: as above; format: in vivo; design: scale not given here; conditions: dose 1.6 g ai/10a, 14th day after treatment
Method in brief: as §5

pale smartweed (Po) [18] = assay: as above; format: in vivo; design: scale not given here; conditions: dose 1.6 g ai/10a, 14th day after treatment
Method in brief: as §5

China jute (Ab) [19] = assay: as above; format: in vivo; design: scale not given here; conditions: dose 1.6 g ai/10a, 14th day after treatment
Method in brief: as §5

wheat (Tr) = assay: Test Example 9: crop plant selectivity by upland field foliage treatment (wheat), phytotoxicity; conditions: dose 1.6 g ai/10a, 14th day after treatment
Method in brief: as §5

corn (Ze) = assay: Test Example 11: crop plant selectivity by upland field foliage treatment (corn), phytotoxicity; conditions: dose 1.6 g ai/10a
Method in brief: as §1

[20] = upland field foliage treatment (corn test), 14th day after treatment
[21] = upland field foliage treatment, 14th day after treatment

| SMILES | Herbicidal effects Sc (bulrush (Sc)) | Herbicidal effects Ec (barnyardgrass (Ec) [5]) | Herbicidal effects Mo (monochoria (Mo)) | Herbicidal effects Ch [6] | Herbicidal effects Ec (barnyardgrass (Ec) [7]) | Herbicidal effects Am (slender amaranth (Am) [8]) | Herbicidal effects Ci (rice flatsedge (Ci) [9]) | Herbicidal effects Po (pale smartweed (Po) [10]) | Herbicidal effects Di (Digitaria ciliaris (Di)) | Herbicidal effects Ch [11] | Herbicidal effects Ec (barnyardgrass (Ec) [12]) | Herbicidal effects Am (slender amaranth (Am) [13]) | Herbicidal effects Di (Diaitaria ciliaris (Di)) | Herbicidal effects Ci (rice flatsedge (Ci) [14]) | Herbicidal effects Po (pale smartweed (Po) [15]) | Herbicidal effects Ch [16] | Herbicidal effects Am (slender amaranth (Am) [17]) | Herbicidal effects Po (pale smartweed (Po) [18]) | Herbicidal effects Ab (China jute (Ab) [19]) | Phytotoxicity Tr (wheat (Tr)) | other results |
| --- | --- | --- | --- | --- | --- | --- | --- | --- | --- | --- | --- | --- | --- | --- | --- | --- | --- | --- | --- | --- | --- |
| Cn1c(C(F)(F)F)ccc(-c2cc(OCCCF)c(Cl)cc2F)c1=O [Compound 1-204] | 5 | 5 | 5 | 5 | 5 | 5 | 5 | 5 | 5 | 5 | 5 | 5 | 5 | 5 | 5 | 5 | 5 | 5 | 5 | 2 | Herbicidal effects Ch [1, 20]: 5; Herbicidal effects Am (slender amaranth (Am) [2]; [20]): 5; Herbicidal effects Po (pale smartweed (Po) [3]; [20]): 5; Herbicidal effects Ab (China jute (Ab) [4]; [20]): 5; Phytotoxicity Ze (corn (Ze); [21]): 2 |
| COCN1C(=O)COc2cc(F)c(-c3ccc(C(F)(F)F)n(C)c3=O)cc21 [Compound 2-19] | 5 | 5 | 5 | 5 | 5 | 5 | 5 | 5 | 5 | 5 | 5 | 5 | 5 | 5 | 5 | 5 | 5 | 5 | 5 | 1 | Herbicidal effects Ch [1, 20]: 5; Herbicidal effects Am (slender amaranth (Am) [2]; [20]): 5; Herbicidal effects Po (pale smartweed (Po) [3]; [20]): 5; Herbicidal effects Ab (China jute (Ab) [4]; [20]): 5; Phytotoxicity Ze (corn (Ze); [21]): 1 |
| C=CCn1c(=O)sc2cc(F)c(-c3ccc(C(F)(F)F)n(C)c3=O)cc21 [Compound 3-5] | 5 | 5 | 5 | 5 | 5 | 5 | 5 | 5 | 5 | 5 | 5 | 5 | 5 | 5 | 5 | 5 | 5 | 5 | 5 | 1 | Herbicidal effects Ch [1, 20]: 5; Herbicidal effects Am (slender amaranth (Am) [2]; [20]): 5; Herbicidal effects Po (pale smartweed (Po) [3]; [20]): 5; Herbicidal effects Ab (China jute (Ab) [4]; [20]): 5; Phytotoxicity Ze (corn (Ze); [21]): 2 |
| Cn1c(C(F)(F)F)ccc(-c2cc3c(cc2F)sc(=O)n3C)c1=O [Compound 3-6] | 5 | 5 | 5 | 5 | 5 | 5 | 5 | 5 | 5 | 5 | 5 | 5 | 5 | 5 | 5 | 5 | 5 | 5 | 5 | 2 | Herbicidal effects Ch [1, 20]: 5; Herbicidal effects Am (slender amaranth (Am) [2]; [20]): 5; Herbicidal effects Po (pale smartweed (Po) [3]; [20]): 5; Herbicidal effects Ab (China jute (Ab) [4]; [20]): 5; Phytotoxicity Ze (corn (Ze); [21]): 2 |
| CCCc1cc2c(Cl)cc(F)c(-c3ccc(C(F)(F)F)n(C)c3=O)c2o1 [Compound 5-3] | 5 | 5 | 5 | 5 | 5 | 5 | 5 | 5 | 5 | 5 | 5 | 5 | 5 | 5 | 5 | 5 | 5 | 5 | 5 | 1 | Herbicidal effects Ch ([1]; common lambsquarters, foliage treatment, evaluated on 14th day after treatment, index per Table 47): 5; Herbicidal effects Am (slender amaranth (Am) [2]; slender amaranth, foliage treatment, evaluated on 14th day after treatment, index per Table 47): 5; Herbicidal effects Po (pale smartweed (Po) [3]; pale smartweed, foliage treatment, evaluated on 14th day after treatment, index per Table 47): 5; Herbicidal effects Ab (China jute (Ab) [4]; China jute, foliage treatment, evaluated on 14th day after treatment, index per Table 47): 5; Phytotoxicity Ze (corn (Ze); corn, foliage treatment, evaluated on 14th day after treatment, index per Table 47): 2 |
